The source of these data is US20170347654A1, “Herbicidal Compounds” (SYNGENTA PARTICIPATIONS AG, priority 2014, published 2017).

What all share (test): Post-emergence efficacy (glasshouse)
What all share (format): in vivo
Holding throughout (conditions): evaluated after 13 days

Test [1] deals with Lolium perenne (LOLPE). The protocol: (§1) Seeds of a variety of test species (such as, for example, Solanum nigrum (SOLNI), Amaranthus retoflexus (AMARE), Setaria faberi (SETFA), Echinochloa crusgalli (ECHCG), Ipomoea hederacea (IPOHE) and Lolium perenne (LOLPE)) are sown in standard soil in pots. After 8 days cultivation (post-emergence) under controlled conditions in a glasshouse (at 24/16° C., day/night; 14 hours light; 65% humidity), the plants are sprayed with an aqueous spray solution derived from the formulation of the technical active ingredient in acetone/water (50:50) solution containing 0.5% Tween 20 (polyoxyethylene sorbitan monolaurate, CAS RN 9005-64-5). Compounds are applied at 1000 and 62.5 g/ha. The test plants are then grown under controlled conditions in a glasshouse (at 24/16° C., day/night; 14 hours light; 65% humidity) and watered twice daily. After 13 days, the test is evaluated for the percentage damage caused to the plant. The biological activities are assessed on a five point scale (5=80-100%; 4=60-79%; 3=40-59%; 2=20-39%; 1=0-19%).

In test [2] the test system is Ipomoea hederacea (IPOHE). The protocol:
as §1

Test [3] has as its system Amaranthus retoflexus (AMARE). As for the experimental part: as §1
The subject of test [4] is Solanum nigrum (SOLNI). As for the experimental part: as §1
The subject of test [5] is Setaria faberi (SETFA). The protocol:
as §1

The test system of test [6] is Echinochloa crusgalli (ECHCG). The protocol:
as §1

Take `C#CCn1c(=O)c(-c2c(F)ccc(Cl)c2OCc2ccccc2)c(O)c2scnc21` [Compound 1.007]: the “percentage damage caused to the plant, LOLPE (five point scale)” value in test [1] (62.5 g/ha) and in test [1] (1000 g/ha) was 5 (5=80-100%) throughout. The “percentage damage caused to the plant, IPOHE (five point scale)” value in test [2] (62.5 g/ha) and in test [2] (1000 g/ha) was 5 (5=80-100%) throughout. For the same molecule, the “percentage damage caused to the plant, AMARE (five point scale)” value in test [3] (62.5 g/ha) and in test [3] (1000 g/ha) was 5 (5=80-100%) each time. The “percentage damage caused to the plant, SOLNI (five point scale)” value in test [4] (62.5 g/ha) and in test [4] (1000 g/ha) was 5 (5=80-100%) each time. In addition, the “percentage damage caused to the plant, SETFA (five point scale)” value in test [5] (62.5 g/ha) and in test [5] (1000 g/ha) was 5 (5=80-100%) each time. For the same molecule, the “percentage damage caused to the plant, ECHCG (five point scale)” value in test [6] (62.5 g/ha) and in test [6] (1000 g/ha) was 5 (5=80-100%) throughout.

`Cn1c(=O)c(-c2c(F)ccc(Cl)c2OCc2ccccc2)c(O)c2scnc21` [Compound 1.017]: the “percentage damage caused to the plant, LOLPE (five point scale)” value was 4 (4=60-79%) in test [1] (62.5 g/ha) and 5 (5=80-100%) in test [1] (1000 g/ha). For the same molecule, the “percentage damage caused to the plant, IPOHE (five point scale)” value in test [2] (62.5 g/ha) and in test [2] (1000 g/ha) was 5 (5=80-100%) each time. Further, the “percentage damage caused to the plant, AMARE (five point scale)” value is listed as 4 (4=60-79%) in test [3] (62.5 g/ha) and 5 (5=80-100%) in test [3] (1000 g/ha). In addition, the “percentage damage caused to the plant, SOLNI (five point scale)” value in test [4] (62.5 g/ha) and in test [4] (1000 g/ha) was 5 (5=80-100%) throughout. The “percentage damage caused to the plant, SETFA (five point scale)” value in test [5] (62.5 g/ha) is 1 (1=0-19%); in test [5] (1000 g/ha), 5 (5=80-100%). Also, the “percentage damage caused to the plant, ECHCG (five point scale)” value was 2 (2=20-39%) in test [6] (62.5 g/ha) and 5 (5=80-100%) in test [6] (1000 g/ha).

As to `Cn1c(=O)c(-c2c(Cl)ccc(Cl)c2OCc2ccccc2)c(O)c2scnc21` [Compound 1.011], the “percentage damage caused to the plant, LOLPE (five point scale)” value is recorded as 2 (2=20-39%) in test [1] (62.5 g/ha) and 5 (5=80-100%) in test [1] (1000 g/ha). Also, the “percentage damage caused to the plant, IPOHE (five point scale)” value in test [2] (62.5 g/ha) and in test [2] (1000 g/ha) was 5 (5=80-100%) throughout. In addition, the “percentage damage caused to the plant, AMARE (five point scale)” value was 4 (4=60-79%) in test [3] (62.5 g/ha) and 5 (5=80-100%) in test [3] (1000 g/ha). Also, the “percentage damage caused to the plant, SOLNI (five point scale)” value in test [4] (62.5 g/ha) and in test [4] (1000 g/ha) was 5 (5=80-100%) throughout. For the same molecule, the figures for the “percentage damage caused to the plant, SETFA (five point scale)” value in test [5] (62.5 g/ha) and in test [5] (1000 g/ha) were 2 (2=20-39%) and 5 (5=80-100%), respectively. The “percentage damage caused to the plant, ECHCG (five point scale)” value in test [6] (62.5 g/ha) is listed as 3 (3=40-59%); in test [6] (1000 g/ha), 5 (5=80-100%).

`O=c1c(-c2c(F)ccc(Cl)c2OCc2ccccc2)c(O)c2scnc2n1CC(F)F` [Compound 1.027]: the “percentage damage caused to the plant, LOLPE (five point scale)” value is 4 (4=60-79%) in test [1] (62.5 g/ha) and 5 (5=80-100%) in test [1] (1000 g/ha). Moreover, the “percentage damage caused to the plant, IPOHE (five point scale)” value in test [2] (62.5 g/ha) and in test [2] (1000 g/ha) was 5 (5=80-100%) each time. Besides, the “percentage damage caused to the plant, AMARE (five point scale)” value in test [3] (62.5 g/ha) and in test [3] (1000 g/ha) was 5 (5=80-100%) each time. Also, the “percentage damage caused to the plant, SOLNI (five point scale)” value in test [4] (62.5 g/ha) and in test [4] (1000 g/ha) was 5 (5=80-100%) throughout. The entries for the “percentage damage caused to the plant, SETFA (five point scale)” value in test [5] (62.5 g/ha) and in test [5] (1000 g/ha) were 3 (3=40-59%) and 5 (5=80-100%), respectively. In addition, the “percentage damage caused to the plant, ECHCG (five point scale)” value in test [6] (62.5 g/ha) was 3 (3=40-59%); in test [6] (1000 g/ha), 5 (5=80-100%).

For the molecule `C#CCn1c(=O)c(-c2c(C(F)(F)F)ccc(Cl)c2OCc2ccccc2)c(O)c2scnc21` [Compound 1.009], the “percentage damage caused to the plant, LOLPE (five point scale)” value in test [1] (62.5 g/ha) and in test [1] (1000 g/ha) was 5 (5=80-100%) each time. Further, the “percentage damage caused to the plant, IPOHE (five point scale)” value in test [2] (62.5 g/ha) and in test [2] (1000 g/ha) was 5 (5=80-100%) throughout. In addition, the “percentage damage caused to the plant, AMARE (five point scale)” value in test [3] (62.5 g/ha) and in test [3] (1000 g/ha) was 5 (5=80-100%) each time. For the same molecule, the “percentage damage caused to the plant, SOLNI (five point scale)” value in test [4] (62.5 g/ha) and in test [4] (1000 g/ha) was 5 (5=80-100%) throughout. Moreover, the “percentage damage caused to the plant, SETFA (five point scale)” value in test [5] (62.5 g/ha) and in test [5] (1000 g/ha) was 5 (5=80-100%) in each case. Further, the “percentage damage caused to the plant, ECHCG (five point scale)” value in test [6] (62.5 g/ha) and in test [6] (1000 g/ha) was 5 (5=80-100%) in each case.
